“And” between values parts separate entries of the source, which are not always exact repeats. Equal entries are not always repeated. Where two headings read alike, the source gives them in different places.
Legend:
[1] = parameters: method as in PMID 31725934; conditions: 1-octanol/water; cited from earlier work
Balb/c mice [2] = test: Dynamic T1-weighted MRI in mice after tail vein injection (4.7 T); format: in vivo; conditions: healthy mouse, 0.05 mmol/kg, kidneys/blood, up to 45 min
Source text: The two new Fe(III) complexes, Fe(L1)(OH2) and […], and the Gd(III) agent, Gd(DOTA), were studied in Balb/c mice on a small animal 4.7-T MRI scanner upon tail vein injection of the agent (Figure S24, Supplementary Materials). […] Biodistribution and pharmacokinetic clearance of the complexes in mice were monitored by using dynamic MRI.
In vivo imaging studies with the Fe(III) complexes were studied on at 4.7 T Bruker preclinical MRI in mice (BABC/cJ, Jackson Laboratory) in accordance with approved Institutional Animal Care and Use Committee (IACUC) protocols. The samples with a concentration of 0.050, 0.100, and 0.200 mmol [Fe]/kg. The Fe(III) complex stock solutions were adjusted to pH 7.2 by addition of meglumine and were injected intravenously via tail vein. MR data were recorded continuously for up to 1 h. Distribution studies and clearance kinetics were studied by using MR data acquired over several time points for up to 1 h, and additionally at 4 h and 24 h. For comparison, The Food and Drug Administration (FDA)-approved MRI contrast agent gadopentetate dimeglumine (Gd(DTPA), Magnevist®) and gadoterate meglumine (Gd(DOTA), Dotarem®) were injected at 50.0 μmol [Gd]/kg into separate group of mice and imaged as above.

[3] = cited from earlier work; for relaxivity: 4.7 T printed for Fe(EDTA) only
Balb/c mice [4] = test system: Balb/c mice; parameters: method as in PMID 31725934; conditions: cited from earlier work
[5] = 'was reported', reference not given, cited from earlier work
[6] = biological target: T1, human serum albumin (HSA) (Homo sapiens, UniProt P02768); test: Binding to human serum albumin by ultrafiltration / ICP-MS; format: in vitro ADME; conditions: 0.4 mM complex, HSA 4.5% (w/v) (0.7 mM), 20 mM HEPES pH 7.4, 100 mM NaCl, 37 °C, 20 min
T1 construct: Albumin from human serum (fatty acid free) was purchased from Sigma-Aldrich; purchased Sigma-Aldrich; host or cells: purified from human serum
Experimental: Binding of the Fe(III) complexes to human serum albumin (HSA) was studied by using ultrafiltration across a MW 5000 cutoff membrane. The solutions containing HEPES buffer (pH 7.4) and salt NaCl were incubated at 37 °C for 20 min. Solutions contained 0.4 mM Fe(III) complex and 4.5 % (w/v) HSA (0.7 mM). The binding percentages were measured by using ICP-MS to analyze the Fe concentration in the unbound complex solutions after HSA incubation (Table 1). The protein binding for Fe(L3)(OH2) was higher (75%) than for Fe(L1)(OH2) (37%) or Fe(L2) (11%).
The molecular weight of 66,435 Da was used to determine the molar concentrations of HSA. Fe(III) complex (0.400 mM) solutions were incubated with 4.5% (w/v) HSA in 0.100 M NaCl and 20.0 mM HEPES buffer (pH 7.4). All solutions were incubated at 37 °C for 20 min [42]. Aliquots (0.300 mL) were placed in ultra-centrifugal filter units with a 5-kDa membrane and centrifuged at 3500× g for 10 min. The filtrates were used to determine Fe concentration from digested unbound Fe(III) complexes by using ICP-MS.

[7] = parameters: method as in PMID 31725934; conditions: comparison complex, no titration described in this paper; cited from earlier work
[8] = parameters: method as in PMID 31725934; conditions: 100 mM HCl, cited from earlier work

T1 sequence (P02768 25-609): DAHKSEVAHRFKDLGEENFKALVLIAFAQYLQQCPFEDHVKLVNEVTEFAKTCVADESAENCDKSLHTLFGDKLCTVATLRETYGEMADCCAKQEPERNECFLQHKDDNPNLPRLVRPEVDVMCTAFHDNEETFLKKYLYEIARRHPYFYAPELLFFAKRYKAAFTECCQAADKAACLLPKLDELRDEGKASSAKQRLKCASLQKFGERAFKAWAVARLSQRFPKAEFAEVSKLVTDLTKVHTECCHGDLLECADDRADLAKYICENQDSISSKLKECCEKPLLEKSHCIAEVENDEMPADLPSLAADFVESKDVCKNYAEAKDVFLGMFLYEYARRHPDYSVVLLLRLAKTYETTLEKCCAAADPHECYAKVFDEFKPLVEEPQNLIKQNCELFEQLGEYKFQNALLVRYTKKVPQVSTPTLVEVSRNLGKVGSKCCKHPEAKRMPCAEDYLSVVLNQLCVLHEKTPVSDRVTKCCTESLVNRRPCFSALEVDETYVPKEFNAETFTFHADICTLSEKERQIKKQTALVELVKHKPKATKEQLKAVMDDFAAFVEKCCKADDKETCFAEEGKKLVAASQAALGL

Compound: C[C@H]([O-])CN1CCN(Cc2ccccc2)CCN(C[C@H](C)O)CC1.O.[Fe+3] [Fe(L3)(OH2)]
- Log P [1]: −0.13
- T1-weighted contrast enhancement compared with other agents (Balb/c mice [2]): much stronger than that of Fe(L1)(OH2) or Gd(DOTA)
- r2 4.7 T ([3]; 4.7 T): 4.5 ± 1.1 mM⁻¹ s⁻¹
- r1 4.7 T ([3]; buffer, pH 7.4, 37 °C, 4.7 T): 2.2 mM⁻¹ s⁻¹ and 2.2 ± 0.30 mM⁻¹ s⁻¹
- r1 in HSA 4.7 T ([3]; in HSA, 4.7 T): 2.5 ± 0.10 mM⁻¹ s⁻¹
- r2 in HSA 4.7 T ([3]; in HSA, 4.7 T): 4.2 ± 0.70 mM⁻¹ s⁻¹
- duration of enhanced kidney contrast (Balb/c mice [4]): up to four hours
- electrode potential (E1/2) vs. Ag/AgCl ([5]; pH 3): 112 mV
- electrode potential (E1/2) vs. NHE ([5]; pH 3): 400 mV
- electrode potential (E1/2) vs. Ag/AgCl ([5]; pH 7): −588 mV
- electrode potential (E1/2) vs. NHE ([5]; pH 7): −300 mV
- HSA Binding (%) [6]: 75% and 75.1 ± 3.7%
- Log K1 (pKa2) [7]: 7.17 ± 0.01
- dissociation in acidic solution ([8]; over 24 h): 14%
- dissociation in acidic solution ([8]; over 72 h): 38%

Compound: O=C([O-])CN(CCN(CC(=O)[O-])CC(=O)[O-])CCN(CC(=O)[O-])CC(=O)[O-].[Fe+3] [Fe(DTPA)]
- relaxivity [3]: 0.51 mM⁻¹ s⁻¹

Compound: CNC[C@H](O)[C@@H](O)[C@H](O)[C@H](O)CO.CNC[C@H](O)[C@@H](O)[C@H](O)[C@H](O)CO.O=C([O-])CN(CCN(CC(=O)[O-])CC(=O)O)CCN(CC(=O)[O-])CC(=O)O.[Gd+3] [Gd(DTPA), gadopentetate dimeglumine]
- r1 9.4 T ([3]; 9.4 T): 2.5 mM⁻¹ s⁻¹
- r1 4.7 T ([3]; buffer, pH 7.4, 37 °C, 4.7 T): 3.1 mM⁻¹ s⁻¹
- r1 in HSA 4.7 T ([3]; in HSA, 4.7 T): 3.2 mM⁻¹ s⁻¹

Compound: O=C([O-])CN(CCN(CC(=O)[O-])CC(=O)[O-])CC(=O)[O-].[Fe+3] [Fe(EDTA)]
- relaxivity [3]: 1.4 mM⁻¹ s⁻¹

Compound: CNC[C@H](O)[C@@H](O)[C@H](O)[C@H](O)CO.O=C([O-])CN1CCN(CC(=O)[O-])CCN(CC(=O)O)CCN(CC(=O)[O-])CC1.[Gd+3] [Gd(DOTA), gadoterate meglumine]
- r1 4.7 T ([3]; 4.7 T): 2.8 ± 0.10 mM⁻¹ s⁻¹
- r2 4.7 T ([3]; 4.7 T): 3.7 ± 0.20 mM⁻¹ s⁻¹

— paper PMC7288058, “Modulating the Properties of Fe(III) Macrocyclic MRI Contrast Agents by Appending Sulfonate or Hydroxyl Groups” (Molecules, 2020)
